Measured values reported in US20240024491A1, “MANNOSYLATED AMINE DEXTRAN DRUG DELIVERY VEHICLES WITH DEGRADABLE DISULFIDE/CARBONATE LINKERS TARGETING PAYLOADS TO CD206 EXPRESSING CELLS” (Navidea Biopharmaceuticals, Inc., priority 2022, published 2024).

Tests used:
human macrophages = assay: Human macrophage cell culture assay, surface marker expression (MFI) by flow cytometry; type: cell-based; conditions: MAD-PAC3.5 or equal molar equivalent concentration of free paclitaxel; vs no drug control
Description: In this assay, human peripheral blood monocytes (hPBMCs) were incubated for five days in RPMI+10% FBS+1x Penicillin/Streptomycin/L-glutamine+5Ong/mlGM-CSF (complete medium) at a concentration of 500,000 monocytes per well in 48 well tissue culture plates. […] GM-CSF induces the macrophages to adopt an activated phenotype that is intermediate between the extremes of M1 or M2. […] Saline and Vehicle (MAD without a drug payload, 23.3 μg/ml) were added as alternative supplements to other cultures as negative controls. The macrophage cell cultures were incubated with the supplemented complete medium for 24 hours after which it was removed and replaced with fresh complete medium. The macrophage cultures were then incubated for an additional three days. The three-day post treatment incubation was performed to permit assessment of durable changes in macrophage phenotypes.
After the additional three-day incubation in fresh complete medium, the cells were harvested and evaluated by flow cytometry for viability (DAPI) or expression of macrophage surface markers. These markers are representative of markers that are frequently considered as indicative of either M1-like or M2-like phenotypes or are known immune checkpoint receptors. The evaluated cell surface markers included CD206, CD163, CD80, CD86, MHC1, MHC2, SIRPa, and PD-1 using antibodies specific for each marker. […] The outputs of the flow cytometry assays were mean fluorescent intensities (MFI). Macrophages differentiated from monocytes collected from three separate donors were evaluated for all treatments. For each donor's macrophages, all experiments were run in triplicate.

CT26 cells = assay: CT26/Balb-c syngeneic mouse tumor model; type: in vivo; conditions: intravenous injections on treatment days 1, 4, 7 and 11; MAD-PAC3.5 127 μg/injection, free paclitaxel molar equivalent
Description: Mice were implanted with CT26 cells that were permitted to grow and become established until they had attained tumor volumes of 80-100 mm 3. Tumor bearing mice (n=10/treatment group) were administered test articles by intravenous injections on 4 days (treatment days, 1, 4, 7, and 11). […] Tumor volumes were measured and recorded at regular intervals.

## CC(=O)O[C@H]1C(=O)[C@@]2(C)[C@H]([C@H](OC(=O)c3ccccc3)[C@]3(O)C[C@H](OC(=O)[C@H](O)[C@@H](NC(=O)c4ccccc4)c4ccccc4)C(C)=C1C3(C)C)[C@]1(OC(C)=O)CO[C@@H]1C[C@@H]2O [free paclitaxel, paclitaxel]
Human macrophages
  expression of CD80: increased the expression
  expression of CD86: increased the expression
  expression of CD163: modestly increased expression
  expression of CD206: modestly increased expression
  expression of MHC1: not significantly altered
  expression of MHC2: not significantly altered
  expression of PD1: not by free paclitaxel
  expression of SIRPa: not significantly altered
CT26 cells
  mean tumor volume on treatment day 14 compared to saline: modestly decreased mean tumor volumes
